Experimental data from patent US6291247A, “Methods of screening for factors that disrupt neurotrophin conformation and reduce neurotrophin biological activity” (priority 1996, dated 2001).
“Also recorded” adds a separate entry of the source. Bridges are numbered along the chain shown (N, C = ends).

Key:
PC12 cells [1] = test: NGF-dependent survival of PC12 cells; format: cell-based, rat
Protocol: Effects of divalent ions on NGF mediated survival and toxicity was evaluated using a colorimetric assay for the lysosomal enzyme acid phosphatase to determine cell number (Connolly, D. T., Knight, M. B., Harakas, N. K, Wittwer, A. J. & Feder, J. Determination of the number of endothelial cells in culture using an acid phosphatase assay. Anal. Biochem. 152, 136-140 (1986); Ueda, Y., Walsh, E., Nakanishi H. & Yoshida, K. A. colorometric assay method for the evaluation of neurotrophic activity in vitro. Neurosci. Lett. 165, 203-207 (1994)). […] To evaluate toxicity, the cells were seeded and maintained without NGF in RPMI with 10% heat inactivated donor horse serum and 5% fetal calf serum in the presence of additives. Loss in viable cell number was determined and expressed as a percent of control. NGF rescues PC12 cells from cell death in serum-free medium(Greene, L. A. Nerve growth factor prevents the death and stimulates neuronal differentiation of clonal PC12 pheochromocytoma cells in serum-free medium. J. Cell Biol. 78, 747-755 (1978)). NGF-dependent survival was assessed by harvesting PC12 cells in balanced salt solution followed with washing by 4 cycles of suspension and centrifugation in serum-free RPMI prior to seeding in 96 well plates. After incubation with additives, medium was removed from the wells and cells washed once with 200 μl PBS. Buffer containing 0.1M sodium acetate pH 5.5, 0.1% Triton X-100 and 10 mM p-nitrophenyl phosphate (Sigma 104 phosphatase substrate) was added to each well (100 μl). Plates were incubated at 37° C. for 3 hours. The reaction was stopped by the addition of 10 μl/well of 1N sodium hydroxide and the color development measured at 405 nm using a microplate reader. The relationship between cell number and enzyme activity was linear over the range 1000 to 15,000 cells.
To explore the ability of other transition metals to influence the biological activities of NGF, a series of cations known to mimic in certain respects the binding of zinc to proteins were tested. […] For this reason these ions were not tested in NGF- dependant growth phenomena. […] As these studies appeared to indicate potentially complex results upon metal ions binding to NGF, a receptor crosslinking system where specific receptor types could be identified was utilized.

TrkA receptor = test: NGF-dependent TrkA phosphorylation in PC12 cells, metal ions; format: cell-based, rat
Protocol: Zn^2+ and/or other additives were allowed to equilibrate with NGF for 2 hours at 4° C. prior to addition of cells. PC12 cells were used at 10^6 cells/ml and incubated with 40 pM NGF for 15 minutes at 37° C. At the conclusion of the reaction, cells were washed, lysed in TBS containing 10% glycerol, 1% Triton X-100, 1 mM PMSF, 10 μg/ml aprotinin, 1 μg/ml leupeptin and 500 μM orthovanadate (lysis buffer, 10^8 cells/ml). The cellular debris was removed by centrifugation and the soluble proteins incubated with an anti-TrkA cytoplasmic domain antibody. Antibody complexes were isolated by incubating with immobilized protein G (Pierce Ultralink; 70 μl of a 50% slurry) for 2 hours at 4° C. The solid phase was washed extensively with lysis buffer and the pellet dissolved in SDS sample buffer. Proteins were resolved using 6% SDS PAGE and Western analysis performed with anti-phosphotyrosine 4G10 (UBI) visualized with ECL (Amersham).

DRG neurons [2] = test: BDNF-dependent neurite outgrowth of DRG neurons; format: cell-based, chick; conditions: n = 8
Protocol: (§1) Dissosiated cells enriched for sensory neurons were prepared from ED8 chick DRG as described (Dostaler, S. M. et al. Characterization of a distinctive motif of the low molecular weight neurotrophin receptor that modulates NGF-mediated neurite growth. Eur. J. Neurosci. 8, 870-879 (1996)). Neurons were seeded at a density of 800-1000 cells/well in Ham's F-12 containing 5% FCS and NGF at 10 pM into wells of Terasaki plates treated with polyysine. The cells were incubated with the indicated additives at 37° C. in a 5% CO2 atmosphere. The cells on the entire lower horizontal surface of the well were scored for neurite growth at 18-20 hours using an inverted microscope fitted with phase contrast optics. A neurite was scored if its caliber from the origin to terminal was constant and its length was equal to or greater than 1.5 cell body diameters. Neurite growth was corrected for background (no NGF).
Human recombinant BDNF and human recombinant NT-3 were obtained from Alomone Laboratories (Israel). The iodination, crosslinking, and binding experiments using BDNF and NT-3 were performed using the methods described above for NGF. Neurite outgrowth assays were performed as described in the presence of 4.0 nM NT-3 or 8.0 nM BDNF.

NGF [3] = target: T1, NGF (Mus musculus, UniProt P01139); test: NGF protomer crosslinking with BS3 (NGF conformation), metal ions; format: biochemical
T1 construct: homodimer
Protocol: For crosslinking NGF […], 0.4 mM BS^3 was added to the mixture and incubated for 30 minutes at 25° C. […] For CD studies, NGF (50 μg/ml) was dissolved in 50 mM Tris-HCl buffer and spectra recorded using a computer controlled Jasco J-600 spectropolarimeter. Samples were acquired in the absence or presence of Zn^2+ (100 μM) at 22° C. in a 2 mm quartz cell averaged over eight scans. Modification of His residues by DEPC was carried out as previously described, where the molar excess of DEPC added and the extent of reaction was determined by evaluating the loss of binding activity of the modified product.

DRG neurons [4] = test: NGF-mediated neurite outgrowth of DRG neurons, metal ions; format: cell-based, chick; conditions: 50 and 100 μM
Protocol: as §1

PC12 cells [5] = test: Toxicity to PC12 cells; format: cell-based, rat
NGF [6] = target: T1, NGF; test: Cross-linking of NGF protomers in a cell-free system (Example 6); format: biochemical
Description: That is, under denaturing conditions, NGF normally dissociates and electrophoreses as a monomer (FIG. 8, lane 1). In contrast, native NGF dimers that had been covalently cross-linked by BS^3 were unable to dissociate and were resolved from free monomer as a more slowly migrating band on the gel (FIG. 8, lane 2).

[7] = tested on: kindling-induced seizures; test: Kindling (seizure development) in rats; format: in vivo, Male Long-Evans hooded rats; conditions: intraventricular infusion; peptide 45 μM, anti-NGF 100 μg/day
Protocol: The effect of the present neurotrophin-derived peptides on kindling was determined as follows.
Male Long-Evans hooded rats (300-400 g) were used. The animals were housed individually, maintained on an ad lib feeding schedule and kept on a 12 h on/12 h off light cycle. The rats were anaestetised with 0.1 mL per 100 g body weight of 100 mg/mL ketamine hydrochloride (Roger/STB Inc., London, Canada) and 0.05 mL per 100 g body weight of 20 mg/mL xylocaine 2% hydrochloride (Astra, Mississauga, Canada), and then placed in a stereotaxic holder. […] Following implantation of the electrode, a cannula (Alzet brain infusion kit, Alza Corp.) was implanted in the lateral ventricle, 5 mm below the skull surface, at 0.6 mm caudal to bregma and 1.3 mm lateral to the midline. It was firmly attached to the skull with dental cement and anchored with tee stainless steel screws. […] Histological examination of lateral ventricle sections was done to confirm that the cannula was correctly placed. […] There were five groups of test animals, 5 animals per peptide test group, 10 animals in the negative control group and 12 animals in the positive control group. […]
Following a three-day recovery, the kindling stimulations were started. […] Progression of kindling was monitored behaviorally and electrophysiologically by recording the behavioral seizure stages and the duration and magnitude of afterdischarges.

T1 sequence (P01139 122-239): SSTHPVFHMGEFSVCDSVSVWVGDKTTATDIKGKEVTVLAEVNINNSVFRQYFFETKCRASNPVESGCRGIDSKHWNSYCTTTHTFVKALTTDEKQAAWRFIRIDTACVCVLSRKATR

## [Zn+2] [Zn^2+]
PC12 cells [1]; 100 μM, serum-free, CaEDTA together with Zn2+
  NGF-mediated survival of PC12 cells: reduced signifcantly
PC12 cells [1]; high (1 nM) or low (50 pM) NGF
  Antagonism of NGF-dependent survival: ability to antagonize the NGF-dependant survival
PC12 cells [1]; rat, pc12 cells, 100 µM
  Survival @ 50 pM NGF: 67 ± 19 % control
  Survival @ 1 nM NGF: 84 ± 39 % control
TrkA receptor; 100 μM, PC12 cells
  NGF-induced TrkA phosphorylation: prevented phosphorylation
TrkA receptor; no NGF
  Basal TrkA phosphorylation: no effect on basal TrkA phosphorylation
DRG neurons [2]; 30 μM Zn2+
  Neurite Outgrowth, BDNF (8.0 nM): 30.0 ± 13.3 % Maximum process bearing neur
DRG neurons [2]; 50 μM Zn2+
  Neurite Outgrowth, BDNF (8.0 nM): 1.4 ± 1.4 % Maximum process bearing neur
NGF [3]
  Crosslinking of 125I-NGF to larger complexes (BSA or ovalbumin): promoted
NGF [3]; 0.1 nM 125I-NGF, CaEDTA together with Zn2+
  NGF monomer crosslinking by BS3: NGF monomer crosslinking was inhibited
NGF [3]; 100 μM
  NGF Protomer Conformation (active/inactive): active
NGF [3]; DEPC-modified NGF
  Crosslinking of NGF promoters after His modification (DEPC): not affected by Zn^2+; also recorded: abolished
DRG neurons [4]
  NGF-induced neurite extension: inhibited neurite extension
PC12 cells [5]; 100 μM
  Toxicity (PC12 cell viability): 97 ± 11 % control
PC12 cells [5]; in presence of serum, up to 100 μM
  Toxicity to PC12 cells: no loss in cell viability; also recorded: not toxic

## NH2 -Cys-Gly-Ser-Glu-Val-Pro-Asn-Ser-Ala-Arg-Cys-Cys-Val-Cys-OH (H-CGSEVPNSARCCVC-OH; disulfide 1-14, 11-12) [R11, bicyclic peptide of NGF residues 68-58/108-110, two disulfide bonds]
NGF [6]; 100 μM R11
  NGF protomer cross-linking to BSA: increased dramatically
NGF [6]; 100 μM R11, cell-free
  Cross-linking of NGF promoters by BS3: reduced almost to the point of elimination; also recorded: loss of NGF dimer
[7]
  Delay of the onset of kindling (number of stimulations to stage-5 seizures): approximately equal to that of the anti-NGF IgG
